Values quoted from earlier work in patent US20070213390A1, “HMGCoA reductase inhibitor-angiotensin converting enzyme inhibitor compounds” (pSivida Inc., priority 2005, published 2007).

Target: T1, HMGR (HMGCoA reductase) (Homo sapiens, UniProt P04035)
T1 sequence (P04035 426-888 limits assumed): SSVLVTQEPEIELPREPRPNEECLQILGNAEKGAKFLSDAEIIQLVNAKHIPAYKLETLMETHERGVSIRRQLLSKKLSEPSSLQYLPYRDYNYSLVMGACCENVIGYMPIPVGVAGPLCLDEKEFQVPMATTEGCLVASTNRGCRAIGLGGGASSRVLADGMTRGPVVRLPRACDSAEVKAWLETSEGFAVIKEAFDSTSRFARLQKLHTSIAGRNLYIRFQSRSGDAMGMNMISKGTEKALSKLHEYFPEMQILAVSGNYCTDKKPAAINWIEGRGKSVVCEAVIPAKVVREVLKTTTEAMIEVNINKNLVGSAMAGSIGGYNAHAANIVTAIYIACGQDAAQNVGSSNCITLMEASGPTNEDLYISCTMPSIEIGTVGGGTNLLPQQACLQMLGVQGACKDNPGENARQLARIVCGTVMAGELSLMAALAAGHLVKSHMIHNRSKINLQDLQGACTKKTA
Conditions: substrate of HMGR; read-out: Michaelis constant, Km, for HMG-CoA

Km: 4 µM
Compound: CC(O)(CC(=O)O)CC(=O)SCCNC(=O)CCNC(=O)[C@H](O)C(C)(C)COP(=O)(O)OP(=O)(O)OC[C@H]1O[C@@H](n2cnc3c(N)ncnc32)[C@H](O)[C@@H]1OP(=O)(O)O (stereo partly shown) [HMG-CoA, 3-hydroxy-3-methylglutaryl CoA]
